The values below come from patent publication US9283222B2 (priority 2006, dated 2016).

For the assay, the target named is Recombinant Human Poly(ADP-Ribose) Polymerase (PARP), PARP-1 (Homo sapiens (Human), UniProt P09874). The conditions noted are these: read-out: PARP-1 (Ki); Table 1; text calls the values EC50s.
Recombinant Human Poly(ADP-Ribose) Polymerase (PARP), PARP-1, sequence (P09874 whole entry): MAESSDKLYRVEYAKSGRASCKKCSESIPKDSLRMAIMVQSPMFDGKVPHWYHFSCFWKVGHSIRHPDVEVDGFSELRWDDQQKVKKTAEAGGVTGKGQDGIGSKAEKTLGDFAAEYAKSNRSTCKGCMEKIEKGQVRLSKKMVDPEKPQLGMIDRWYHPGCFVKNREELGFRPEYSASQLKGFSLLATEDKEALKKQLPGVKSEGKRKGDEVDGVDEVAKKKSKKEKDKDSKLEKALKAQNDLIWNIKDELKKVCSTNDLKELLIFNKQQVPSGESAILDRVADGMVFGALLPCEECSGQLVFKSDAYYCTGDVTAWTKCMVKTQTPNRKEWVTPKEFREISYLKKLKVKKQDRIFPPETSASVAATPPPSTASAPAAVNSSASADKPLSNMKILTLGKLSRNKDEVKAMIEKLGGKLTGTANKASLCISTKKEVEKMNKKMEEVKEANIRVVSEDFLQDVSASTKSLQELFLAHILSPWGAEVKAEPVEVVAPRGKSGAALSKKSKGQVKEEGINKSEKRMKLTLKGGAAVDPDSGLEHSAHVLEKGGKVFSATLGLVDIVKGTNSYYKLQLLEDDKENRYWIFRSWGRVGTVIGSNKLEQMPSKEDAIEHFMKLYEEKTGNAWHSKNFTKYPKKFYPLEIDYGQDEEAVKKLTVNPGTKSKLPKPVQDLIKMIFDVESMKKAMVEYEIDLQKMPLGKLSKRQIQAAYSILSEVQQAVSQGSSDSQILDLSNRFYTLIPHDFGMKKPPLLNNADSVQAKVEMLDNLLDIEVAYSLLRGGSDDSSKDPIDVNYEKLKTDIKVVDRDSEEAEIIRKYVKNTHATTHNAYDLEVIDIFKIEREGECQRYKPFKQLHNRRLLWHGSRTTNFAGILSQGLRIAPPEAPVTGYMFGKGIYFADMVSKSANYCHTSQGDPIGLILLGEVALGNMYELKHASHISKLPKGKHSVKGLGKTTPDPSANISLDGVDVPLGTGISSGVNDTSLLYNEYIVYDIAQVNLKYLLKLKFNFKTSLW
As usually defined, the Ki is a measure of affinity in units of concentration, obtained from inhibition or displacement. Turning to `O=C(c1cc(Cc2n[nH]c(=O)c3c2NCCC3)ccc1F)N1CCN(C(=O)C2CCCC2)CC1` [Example 640], the inhibition constant Ki was 0.7 nM.

Take `O=C(c1ccc(Cl)cn1)N1CCN(C(=O)c2cc(Cc3n[nH]c(=O)c4c3NCCC4)ccc2F)CC1` [Example 641]: the Ki amounted to 1.3 nM.

Consider `CC(C)n1nnc2cc(C(=O)N3CCN(C(=O)c4cc(Cc5n[nH]c(=O)c6c5NCCC6)ccc4F)CC3)ccc21` [Example 643], for which the inhibition constant (Ki) was determined as 1.2 nM.

For `CN1CCN(C2CCN(C(=O)c3cc(Cc4n[nH]c(=O)c5c4NCCC5)ccc3F)CC2)CC1` [Example 644], the Ki stood at 3 nM.

Regarding `O=C(c1ccc2ccccc2n1)N1CCN(C(=O)c2cc(Cc3n[nH]c(=O)c4c3NCCC4)ccc2F)CC1` [Example 645], the inhibitory constant (Ki) was 1.5 nM.

As for `O=C(c1ccc(Cl)nc1)N1CCN(C(=O)c2cc(Cc3n[nH]c(=O)c4c3NCCC4)ccc2F)CC1` [Example 646], the inhibition constant Ki stood at 0.7 nM.

Consider `CC(C)n1c(C(F)(F)F)nc2cc(C(=O)N3CCN(C(=O)c4cc(Cc5n[nH]c(=O)c6c5NCCC6)ccc4F)CC3)ccc21` [Example 647], for which the inhibition constant Ki came out at 1.7 nM.

Take `O=C(c1ccc(O)nc1)N1CCN(C(=O)c2cc(Cc3n[nH]c(=O)c4c3NCCC4)ccc2F)CC1` [Example 649]: the Ki came to 0.6 nM.

Take `O=C(c1cnc(Cl)c(O)c1)N1CCN(C(=O)c2cc(Cc3n[nH]c(=O)c4c3NCCC4)ccc2F)CC1` [Example 651]: the Ki amounted to 1.1 nM.

For `Cc1nc2cc(C(=O)N3CCN(C(=O)c4cc(Cc5n[nH]c(=O)c6c5NCCC6)ccc4F)CC3)ccc2[nH]1` [Example 654], the inhibitory constant (Ki) was 1.2 nM.

For the molecule `O=C(c1ccc2nc[nH]c2c1)N1CCN(C(=O)c2cc(Cc3n[nH]c(=O)c4c3NCCC4)ccc2F)CC1` [Example 655], the Ki was 0.7 nM.

For the molecule `O=C(c1cnc2ccccc2c1)N1CCN(C(=O)c2cc(Cc3n[nH]c(=O)c4c3NCCC4)ccc2F)CC1` [Example 657, 8-(4-fluoro-3-{[4-(quinolin-3-ylcarbonyl)piperazin-1-yl]carbonyl}benzyl)-2,3,4,6-tetrahydropyrido[2,3-d]pyridazin-5(1H)-one], the inhibition constant Ki came out at 0.8 nM.

With `O=C(c1cc(Cc2n[nH]c(=O)c3c2NCCC3)ccc1F)N1CCN(C(=O)c2cccnc2Cl)CC1` [Example 658, 8-[3-({4-[(2-chloropyridin-3-yl)carbonyl]piperazin-1-yl}carbonyl)-4-fluorobenzyl]-2,3,4,6-tetrahydropyrido[2,3-d]pyridazin-5(1H)-one], the Ki is 1 nM.

Turning to `O=C(OCc1ccccc1)N1CCCN(C(=O)c2cc(Cc3n[nH]c(=O)c4c3NCCC4)ccc2F)CC1` [Example 659, benzyl 4-{2-fluoro-5-[(5-oxo-1,2,3,4,5,6-hexahydropyrido[2,3-d]pyridazin-8-yl)methyl]benzoyl}-1,4-diazepane-1-carboxylate], the Ki amounted to 2.5 nM.

In the case of `O=C(c1ccncc1)N1CCN(C(=O)c2cc(Cc3n[nH]c(=O)c4c3NCCC4)ccc2F)CC1` [Example 660, 8-{4-fluoro-3-[(4-isonicotinoylpiperazin-1-yl)carbonyl]benzyl}-2,3,4,6-tetrahydropyrido[2,3-d]pyridazin-5(1H)-one], the inhibitory constant (Ki) turned out to be 1.4 nM.

As for `O=C(c1cccnc1)N1CCN(C(=O)c2cc(Cc3n[nH]c(=O)c4c3NCCC4)ccc2F)CC1` [Example 661, 8-(4-fluoro-3-{[4-(pyridin-3-ylcarbonyl)piperazin-1-yl]carbonyl}benzyl)-2,3,4,6-tetrahydropyrido[2,3-d]pyridazin-5(1H)-one], the Ki came out at 1.5 nM.

For `O=C(c1cnccn1)N1CCN(C(=O)c2cc(Cc3n[nH]c(=O)c4c3NCCC4)ccc2F)CC1` [Example 662, 8-(4-fluoro-3-{[4-(pyrazin-2-ylcarbonyl)piperazin-1-yl]carbonyl}benzyl)-2,3,4,6-tetrahydropyrido[2,3-d]pyridazin-5(1H)-one], the inhibition constant Ki worked out at 1.5 nM.

With `O=C(c1ccc2[nH]cnc2c1)N1CCN(C(=O)c2cc(Cc3n[nH]c(=O)c4c3NCCC4)ccc2F)CC1` [Example 663, 8-(3-{[4-(1H-benzimidazol-5-ylcarbonyl)piperazin-1-yl]carbonyl}-4-fluorobenzyl)-2,3,4,6-tetrahydropyrido[2,3-d]pyridazin-5(1H)-one], the inhibitory constant (Ki) was 1 nM.

For the molecule `O=C(c1cncnc1)N1CCN(C(=O)c2cc(Cc3n[nH]c(=O)c4c3NCCC4)ccc2F)CC1` [Example 664, 8-(4-fluoro-3-{[4-(pyrimidin-5-ylcarbonyl)piperazin-1-yl]carbonyl}benzyl)-2,3,4,6-tetrahydropyrido[2,3-d]pyridazin-5(1H)-one], the inhibition constant (Ki) is 1.3 nM.

As to `O=C(c1ccccn1)N1CCN(C(=O)c2cc(Cc3n[nH]c(=O)c4c3NCCC4)ccc2F)CC1` [Example 665, 8-(4-fluoro-3-{[4-(pyridin-2-ylcarbonyl)piperazin-1-yl]carbonyl}benzyl)-2,3,4,6-tetrahydropyrido[2,3-d]pyridazin-5(1H)-one], the Ki was 1.1 nM.

On to `CCOC(=O)N1CCN(C(=O)c2cc(Cc3n[nH]c(=O)c4c3NCCC4)ccc2F)CC1` [Example 666, ethyl 4-{2-fluoro-5-[(5-oxo-1,2,3,4,5,6-hexahydropyrido[2,3-d]pyridazin-8-yl)methyl]benzoyl}piperazine-1-carboxylate], for which the inhibition constant (Ki) is 1.5 nM.

As for `CC1(C)C(=O)NCCN1C(=O)c1cc(Cc2n[nH]c(=O)c3c2NCCC3)ccc1F` [Example 667, 8-{3-[(2,2-dimethyl-3-oxopiperazin-1-yl)carbonyl]-4-fluorobenzyl}-2,3,4,6-tetrahydropyrido[2,3-d]pyridazin-5(1H)-one], the Ki is 20 nM.

In the case of `C[C@@H]1CN(C(=O)c2ccccc2)CCN1C(=O)c1cc(Cc2n[nH]c(=O)c3c2CCCC3)ccc1F` [Example 668, 4-(3-{[(2R)-4-benzoyl-2-methylpiperazin-1-yl]carbonyl}-4-fluorobenzyl)-5,6,7,8-tetrahydrophthalazin-1(2H)-one], the Ki amounted to 1.9 nM.

For the molecule `O=C(c1cc(Cc2n[nH]c(=O)c3c2CCCC3)ccc1F)N1CCN(c2ncncn2)CC1` [Example 669, 4-(4-fluoro-3-{[4-(1,3,5-triazin-2-yl)piperazin-1-yl]carbonyl}benzyl)-5,6,7,8-tetrahydrophthalazin-1(2H)-one], the Ki was 1.2 nM.

In the case of `O=C(c1cscn1)N1CCN(C(=O)c2cc(Cc3n[nH]c(=O)c4c3CCCC4)ccc2F)CC1` [Example 674, 4-(4-fluoro-3-{[4-(1,3-thiazol-4-ylcarbonyl)piperazin-1-yl]carbonyl}benzyl)-5,6,7,8-tetrahydrophthalazin-1(2H)-one], the Ki came out at 1.1 nM.

`O=C1CCC(C(=O)N2CCN(C(=O)c3cc(Cc4n[nH]c(=O)c5c4CCCC5)ccc3F)CC2)N1` (stereo not drawn) [Example 675, 4-[4-fluoro-3-({4-[(5-oxopyrrolidin-2-yl)carbonyl]piperazin-1-yl}carbonyl)benzyl]-5,6,7,8-tetrahydrophthalazin-1(2H)-one]: the inhibition constant Ki was 1.2 nM.

On to `CC1(C)SCN[C@@H]1C(=O)N1CCN(C(=O)c2cc(Cc3n[nH]c(=O)c4c3CCCC4)ccc2F)CC1` [Example 677, 4-{3-[(4-{[(4R)-5,5-dimethyl-1,3-thiazolidin-4-yl]carbonyl}piperazin-1-yl)carbonyl]-4-fluorobenzyl}-5,6,7,8-tetrahydrophthalazin-1(2H)-one], for which the Ki stood at 1.5 nM.
